# Where a name gives a salt, the structure may show the parent alone.
# Biological target: T1, NHE3 (Homo sapiens, UniProt P48764)
# T1 sequence (P48764 26-834): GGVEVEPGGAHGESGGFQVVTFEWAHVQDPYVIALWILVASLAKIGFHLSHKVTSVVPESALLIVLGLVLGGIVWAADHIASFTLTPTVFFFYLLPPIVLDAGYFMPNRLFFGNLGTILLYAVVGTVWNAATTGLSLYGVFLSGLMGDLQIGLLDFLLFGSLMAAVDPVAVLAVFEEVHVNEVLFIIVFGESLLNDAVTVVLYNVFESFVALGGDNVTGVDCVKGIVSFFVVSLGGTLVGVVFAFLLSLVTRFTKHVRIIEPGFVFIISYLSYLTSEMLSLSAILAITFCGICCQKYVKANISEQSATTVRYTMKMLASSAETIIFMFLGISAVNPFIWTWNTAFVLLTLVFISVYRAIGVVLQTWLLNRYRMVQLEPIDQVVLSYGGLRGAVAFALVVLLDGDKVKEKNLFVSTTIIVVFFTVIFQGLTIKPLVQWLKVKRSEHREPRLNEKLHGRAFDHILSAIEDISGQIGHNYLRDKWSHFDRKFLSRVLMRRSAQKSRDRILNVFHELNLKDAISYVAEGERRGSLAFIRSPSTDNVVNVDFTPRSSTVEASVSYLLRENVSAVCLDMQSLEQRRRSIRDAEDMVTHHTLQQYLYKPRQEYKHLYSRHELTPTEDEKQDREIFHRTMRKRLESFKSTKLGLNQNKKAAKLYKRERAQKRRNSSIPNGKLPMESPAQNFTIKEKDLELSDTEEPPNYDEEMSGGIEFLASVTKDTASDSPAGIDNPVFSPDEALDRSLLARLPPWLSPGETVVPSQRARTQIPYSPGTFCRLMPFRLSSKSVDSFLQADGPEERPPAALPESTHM
# Test: Recovery of intracellular pH (pHi) after acidification, BCECF fluorescence, NHE3
# Format: cell-based
# Details: inhibition of pH recovery after intracellular acidification; rate registered at three minutes for NHE3; bicarbonate-free
# Protocol: Pharmacological Data: Test Description:
# This test determines the recovery of the intracellular pH (pHi) after acidification, and this recovery occurs in the case of functional NHE even under bicarbonate-free conditions. To this end, the pHi was determined using the pH-sensitive fluorescent dye BCECF (Calbiochem, the BCECF-AM precursor was used). The cells were initially loaded with BCECF. The BCECF fluorescence was determined in a Ratio Fluorescence Spectrometer (Photon Technology International, South Brunswick, N.J., USA) at excitation wavelengths of 505 and 440 nm and an emission wavelength of 535 nm and converted to the pHi by means of calibration curves. The cells had already been incubated in NH4Cl buffer (pH 7.4) in the course of the BCECF loading (NH4Cl buffer: 115 mM NaCl, 20 mM NH4Cl, 5 mM KCl, 1 mM CaCl2, 1 mM MgSO4, 20 mM Hepes, 5 mM glucose, 1 mg/ml BSA; a pH of 7.4 was established using 1 M NaOH). The intracellular acidification was induced by adding 975 μl of an NH4Cl-free buffer (see below) to 25 μl aliquots of the cells incubated in NH4Cl buffer. The subsequent rate of the pH recovery was registered at 2 minutes for NHE1, at 5 minutes for NHE2 and at three minutes for NHE3. For the calculation of the inhibitory potency of the tested substances, the cells were initially investigated in buffers in which complete or absolutely no pH recovery took place. For complete pH recovery (100%), the cells were incubated in Na^+-containing buffer (133.8 mM NaCl, 4.7 mM KCl, 1.25 mM CaCl2, 1.25 mM MgCl2, 0.97 mM Na2HPO4, 0.23 mM NaH2PO4, 5 mM Hepes, 5 mM glucose, a pH of 7.0 was established using 1 M NaOH). For the determination of the 0% value, the cells were incubated in an Na^+-free buffer (133.8 mM choline chloride, 4.7 mM KCl, 1.25 mM CaCl2, 1.25 mM MgCl2, 0.97 mM K2HPO4, 0.23 mM KH2PO4, 5 mM Hepes, 5 mM glucose, a pH of 7.0 was established using 1 M NaOH). The substances to be tested were made up in the Na^+-containing buffer. The recovery of the intracellular pH at each tested concentration of a substance was expressed in percent of the maximum recovery. The percentages of the pH recovery were used to calculate the IC50 value of the particular substance for the individual NHE subtypes by means of the program Sigma-Plot.
row,SMILES,IC50 [nM]
1,"CN1Cc2c(Cl)cc(Cl)cc2C(c2cccc(NC(=O)[C@H](O)[C@@H](O)[C@H](O)[C@H](O)CO)c2)C1 (stereo partly drawn) [Example 2, N-[3-(6,8-dichloro-2-methyl-1,2,3,4-tetrahydroisoquinolin-4-yl)phenyl]-(2R,3S,4R,5R)-2,3,4,5,6-pentahydroxyhexanamide]",3.6
2,"CN1Cc2c(Cl)cc(Cl)cc2C(c2cccc(NC(=O)N[C@@H](CC(N)=O)C(=O)O)c2)C1 (stereo partly drawn) [Example 13, {N-[3-(6,8-dichloro-2-methyl-1,2,3,4-tetrahydroisoquinolin-4-yl)phenyl]-N′-(1-carboxy-4-aminocarboxy-2S-butyl)}urea hydrochloride]",17.6
3,"CN1Cc2c(Cl)cc(Cl)cc2C(c2cccc(C(=O)N[C@@H](CO)C(=O)O)c2)C1 (stereo partly drawn) [Example 16, (S)-2-[3-(6,8-dichloro-2-methyl-1,2,3,4-tetrahydroisoquinolin-4-yl)benzoylamino]-3-hydroxypropionic acid hydrochloride]",159
4,"CN1Cc2c(Cl)cc(Cl)cc2C(c2ccc(NC(=O)[C@@H](N)CCCNC(=N)N)cc2)C1 (stereo partly drawn) [Example 31, N-[4-(6,8-dichloro-2-methyl-1,2,3,4-tetrahydroisoquinolin-4-yl)phenyl]-(S)-2-amino-5-guanidinopentanamide trifluoroacetate]",29.1

# From patent US7241775B2, “Composition, process of making, and medical use of substituted 4-phenyltetrahydroisoquinolines” (Sanofi-Aventis Deutschland GmbH, priority 2003, dated 2007)
